Data taken from patent US5618813A, “Benzo[5.6]pyrano[2.3.4-ij]quinolizine and benzo[5.6]thiopyrano[2.3.4-ij]quinolizine derivatives as antibacterial and antineoplastic agents” (Abbott Laboratories, priority 1995, dated 1997).
Converted amounts (≈) assume the structure as drawn. Counter-ions that a name gives are not always drawn. Like-named read-outs stand apart in the source and are kept apart here.

Key:
Assay in all cases: In vitro antibacterial activity (MIC, agar dilution)
Format in all cases: cell-based
E. coli SS = settings: Escherichia coli
Experimental: (§1) Each plate was inoculated with 1:100 (or 1:10 for slow-growing strains, primarily Micrococcus and Streptococcus) dilutions of up to 32 different microorganisms, using a Steers replicator block calibrated to deliver approximately 10^4 colony forming units (CFUs). The inoculated plates were incubated at from about 35° C. to about 37° C. for approximately 20-24 hours. In o addition, a control plate using BHI agar containing no test compound was prepared and incubated at the beginning and at the end of each test. The quinolone antibacterial ciprofloxacin was used as a control ("Cntl").
(§2) The MIC was defined as the lowest concentration of test compound yielding no growth (a slight haze or sparsely isolated colonies at the inoculum spot) as compared to the growth control containing no test compound.

[1] = test system: Nocardia asteroides ATCC 9970; settings: ATCC9970
Experimental: as §1, §2

Candida albicans CCH 442 = settings: CCH442
Experimental: as §1, §2

[2] = test system: Enter. aerogenes ATCC 13048; settings: Klebsiella aerogenes, ATCC13048
Experimental: as §1, §2

P. aeruginosa 5263 = settings: Pseudomonas aeruginosa
Experimental: as §1, §2

E. coli DC-2 = settings: Escherichia coli, DC2
Experimental: as §1, §2

Staph. epidermidis 3519 = settings: Staphylococcus epidermidis
Experimental: as §1, §2

Staph. aureus A5177 = settings: Staphylococcus aureus
Experimental: as §1, §2

Staph. aureus NCTC10649 = settings: Staphylococcus aureus
Experimental: as §1, §2

[3] = test system: Strep. pyogenes 930 CONST; settings: Streptococcus pyogenes
Experimental: as §1, §2

Pseudomonas cepacia 296I = settings: Burkholderia cepacia
Experimental: as §1, §2

[4] = test system: Entero. faecium ATCC 8043; settings: Enterococcus faecium, ATCC8043
Experimental: as §1, §2

Staph. aureus CMX 553 = settings: Staphylococcus aureus, CMX553
Experimental: as §1, §2

Staph. aureus ATCC 6538P = settings: Staphylococcus aureus, ATCC6538P
Experimental: as §1, §2

[5] = test system: Acinetobacter calcoaceticus CMX 669; settings: CMX669
Experimental: as §1, §2

P. aeruginosa BMH 10 = settings: Pseudomonas aeruginosa, BMH10
Experimental: as §1, §2

[6] = test system: Providencia stuartii CMX 640; settings: CMX640
Experimental: as §1, §2

[7] = test system: Strep. pyogenes 2458 INDUC; settings: Streptococcus pyogenes
Experimental: as §1, §2

[8] = test system: Klebsiella pneumoniae ATCC 8045; settings: ATCC8045
Experimental: as §1, §2

P. aeruginosa 2862 = settings: Pseudomonas aeruginosa
Experimental: as §1, §2

[9] = test system: Staph. aureus 1775 Cipro.R.; settings: Staphylococcus aureus
Experimental: as §1, §2

M. luteus ATCC 9341 = settings: Micrococcus luteus, ATCC9341
Experimental: as §1, §2

E. coli KNK 437 = settings: Escherichia coli, KNK437
Experimental: as §1, §2

M. luteus ATCC 4698 = settings: Micrococcus luteus, ATCC4698
Experimental: as §1, §2

E. coli H560 = settings: Escherichia coli
Experimental: as §1, §2

P. aeruginosa K799/WT = settings: Pseudomonas aeruginosa
Experimental: as §1, §2

Strep. pyogenes EES61 = settings: Streptococcus pyogenes
Experimental: as §1, §2

P. aeruginosa A5007 = settings: Pseudomonas aeruginosa
Experimental: as §1, §2

Staph. aureus 642A = settings: Staphylococcus aureus
Experimental: as §1, §2

Strep. bovis A5169 = settings: Streptococcus equinus
Experimental: as §1, §2

Escherichia coli Juhl = test system: Escherichia coli Juhl
Experimental: as §1, §2

Myco. smegmatis ATCC 114 = settings: Mycolicibacterium smegmatis, ATCC114
Experimental: as §1, §2

[10] = test system: Strep. agalactiae CMX 508; settings: Streptococcus agalactiae, CMX508
Experimental: as §1, §2

P. aeruginosa K799/61 = settings: Pseudomonas aeruginosa
Experimental: as §1, §2

Staph. aureus 5278 = settings: Staphylococcus aureus
Experimental: as §1, §2

[11] = E. coli SS, agar dilution, read-out: MIC
[12] = Candida albicans CCH 442, agar dilution, read-out: MIC
[13] = P. aeruginosa 5263, agar dilution, read-out: MIC
[14] = E. coli DC-2, agar dilution, read-out: MIC
[15] = Entero. faecium ATCC 8043, agar dilution, read-out: MIC
[16] = Acinetobacter calcoaceticus CMX 669, agar dilution, read-out: MIC
[17] = P. aeruginosa BMH 10, agar dilution, read-out: MIC
[18] = P. aeruginosa 2862, agar dilution, read-out: MIC
[19] = M. luteus ATCC 9341, agar dilution, read-out: MIC
[20] = E. coli KNK 437, agar dilution, read-out: MIC
[21] = M. luteus ATCC 4698, agar dilution, read-out: MIC
[22] = E. coli H560, agar dilution, read-out: MIC
[23] = P. aeruginosa K799/WT, agar dilution, read-out: MIC
[24] = P. aeruginosa A5007, agar dilution, read-out: MIC
[25] = Strep. bovis A5169, agar dilution, read-out: MIC

SMILES	MIC (E. coli SS; [11]) [µg/mL]	MIC [2] [µg/mL]	MIC (P. aeruginosa 5263; [13]) [µg/mL]	MIC (E. coli DC-2; [14]) [µg/mL]	MIC (Staph. epidermidis 3519) [µg/mL]	MIC (Staph. aureus A5177) [µg/mL]	MIC (Staph. aureus NCTC10649) [µg/mL]	MIC [3] [µg/mL]	MIC (Pseudomonas cepacia 296I) [µg/mL]	MIC (Staph. aureus CMX 553) [µg/mL]	MIC (Staph. aureus ATCC 6538P) [µg/mL]	MIC [6] [µg/mL]	MIC [7] [µg/mL]	MIC [9] [µg/mL]	MIC (Strep. pyogenes EES61) [µg/mL]	MIC (Staph. aureus 642A) [µg/mL]	MIC (Escherichia coli Juhl) [µg/mL]	MIC [10] [µg/mL]	MIC (P. aeruginosa K799/61) [µg/mL]	MIC (Staph. aureus 5278) [µg/mL]	further results
NC1CCN(c2c(F)cn3c(=O)c(C(=O)O)cc4c3c2Oc2ccccc2-4)C1 (centres unmarked) [Example 2, 1-(3-amino-pyrrolidinyl)-2-fluoro-5H-5-oxo-benzo[5,6]pyrano[2.3.4-ij]quinolizine-6-carboxylic acid hydrochloride]	0.78	6.2	> 100	12.5	3.1	6.2	3.1	3.1	> 100	6.2	6.2	> 100	3.1	6.2	3.1	6.2	3.1	3.1	6.2	6.2	MIC ([1]; Nocardia asteroides ATCC 9970, agar dilution, read-out: MIC): 3.1 µg/mL; MIC (Candida albicans CCH 442; [12]): > 100 µg/mL; MIC [4, 15]: 6.2 µg/mL; MIC [5, 16]: 6.2 µg/mL; MIC (P. aeruginosa BMH 10; [17]): 25 µg/mL; MIC ([8]; Klebsiella pneumoniae ATCC 8045, agar dilution, read-out: MIC): 1.56 µg/mL; MIC (P. aeruginosa 2862; [18]): > 100 µg/mL; MIC (M. luteus ATCC 9341; [19]): 3.1 µg/mL; MIC (E. coli KNK 437; [20]): 3.1 µg/mL; MIC (M. luteus ATCC 4698; [21]): 3.1 µg/mL; MIC (E. coli H560; [22]): 3.1 µg/mL; MIC (P. aeruginosa K799/WT; [23]): 50 µg/mL; MIC (P. aeruginosa A5007; [24]): 100 µg/mL; MIC (Strep. bovis A5169; [25]): 3.1 µg/mL; MIC (Myco. smegmatis ATCC 114): 3.1 µg/mL
O=C(O)c1cn(C2CC2)c2cc(N3CCNCC3)c(F)cc2c1=O [Ciprofloxacin, ciprofloxacin, reference compound]	–	0.02 (≈ 0.0604 µM)	–	–	0.39 (≈ 1.18 µM)	0.39 (≈ 1.18 µM)	0.39 (≈ 1.18 µM)	0.78 (≈ 2.35 µM)	3.1 (≈ 9.36 µM)	0.78 (≈ 2.35 µM)	0.2 (≈ 0.604 µM)	0.78 (≈ 2.35 µM)	0.39 (≈ 1.18 µM)	> 100	0.78 (≈ 2.35 µM)	0.39 (≈ 1.18 µM)	0.01 (≈ 0.0302 µM)	0.39 (≈ 1.18 µM)	0.02 (≈ 0.0604 µM)	0.39 (≈ 1.18 µM)	MIC (E. coli SS): 0.005 µg/mL (≈ 0.0151 µM); MIC ([1]; Nocardia asteroides): 12.5 µg/mL (≈ 37.7 µM); MIC (Candida albicans CCH 442; Candida albicans): > 100 µg/mL; MIC (P. aeruginosa 5263; 5263): 12.5 µg/mL (≈ 37.7 µM); MIC (E. coli DC-2): 0.2 µg/mL (≈ 0.604 µM); MIC [4, 15]: 0.39 µg/mL (≈ 1.18 µM); MIC ([5]; Acinetobacter calcoaceticus): 0.39 µg/mL (≈ 1.18 µM); MIC (P. aeruginosa BMH 10): 0.1 µg/mL (≈ 0.302 µM); MIC ([8]; Klebsiella pneumoniae): 0.02 µg/mL (≈ 0.0604 µM); MIC (P. aeruginosa 2862; 2862): 12.5 µg/mL (≈ 37.7 µM); MIC (M. luteus ATCC 9341): 1.56 µg/mL (≈ 4.71 µM); MIC (E. coli KNK 437): 0.2 µg/mL (≈ 0.604 µM); MIC (M. luteus ATCC 4698): 0.78 µg/mL (≈ 2.35 µM); MIC (E. coli H560; H560): 0.01 µg/mL (≈ 0.0302 µM); MIC (P. aeruginosa K799/WT; K799/WT): 0.1 µg/mL (≈ 0.302 µM); MIC (P. aeruginosa A5007; A5007): 0.1 µg/mL (≈ 0.302 µM); MIC (Strep. bovis A5169; A5169): 1.56 µg/mL (≈ 4.71 µM); MIC (Myco. smegmatis ATCC 114): 0.78 µg/mL (≈ 2.35 µM)
N[C@H]1CCC[C@H]2CN(c3c(F)cn4c(=O)c(C(=O)O)cc5c4c3Oc3ccccc3-5)C[C@H]21 (relative stereo) [Example 3, 1-(3aα, 4β, 7aα-4-aminooctahydro-[1H]-isoindol-2-yl)-2-fluoro-5H-5-oxo-benzo[5.6]pyrano[2.3.4-ij]quinolizine-6-carboxylic acid hydrochloride]	0.78	25	> 100	100	0.78	0.78	0.78	0.2	> 100	0.78	0.78	100	0.39	3.1	0.39	0.78	6.2	0.39	1.56	0.78	MIC ([1]; Nocardia asteroides): 1.56 µg/mL; MIC (Candida albicans CCH 442; [12]): > 100 µg/mL; MIC [4]: 1.56 µg/mL; MIC [5, 16]: 12.5 µg/mL; MIC (P. aeruginosa BMH 10; [17]): 100 µg/mL; MIC ([8]; Klebsiella pneumoniae): 1.56 µg/mL; MIC (P. aeruginosa 2862; [18]): > 100 µg/mL; MIC (M. luteus ATCC 9341; [19]): 0.39 µg/mL; MIC (E. coli KNK 437; [20]): 25 µg/mL; MIC (M. luteus ATCC 4698; [21]): 0.78 µg/mL; MIC (E. coli H560; [22]): 6.2 µg/mL; MIC (P. aeruginosa K799/WT; [23]): > 100 µg/mL; MIC (P. aeruginosa A5007; [24]): > 100 µg/mL; MIC (Strep. bovis A5169; [25]): 0.39 µg/mL; MIC (Myco. smegmatis ATCC 114): 0.78 µg/mL
O=C(O)c1cc2c3c(c(N4CCOCC4)c(F)cn3c1=O)Oc1ccccc1-2 [Example 1, 1-(1-morpholinyl)-2-fluoro-5H-5-oxo-benzo[5.6]pyrano[2,3.4-ij]quinolizine-6-carboxylic acid]	0.39 (≈ 1.02 µM)	> 100	> 100	> 100	0.39 (≈ 1.02 µM)	0.78 (≈ 2.04 µM)	0.39 (≈ 1.02 µM)	6.2 (≈ 16.2 µM)	100 (≈ 262 µM)	0.78 (≈ 2.04 µM)	0.78 (≈ 2.04 µM)	> 100	6.2 (≈ 16.2 µM)	1.56 (≈ 4.08 µM)	3.1 (≈ 8.11 µM)	0.78 (≈ 2.04 µM)	> 100	3.1 (≈ 8.11 µM)	12.5 (≈ 32.7 µM)	0.78 (≈ 2.04 µM)	MIC [4, 15]: 25 µg/mL (≈ 65.4 µM); MIC [5, 16]: 1.56 µg/mL (≈ 4.08 µM); MIC (P. aeruginosa BMH 10; [17]): > 100 µg/mL; MIC ([8]; Klebsiella pneumoniae): 12.5 µg/mL (≈ 32.7 µM); MIC (P. aeruginosa 2862; [18]): > 100 µg/mL; MIC (M. luteus ATCC 9341; [19]): 1.56 µg/mL (≈ 4.08 µM); MIC (E. coli KNK 437; [20]): 50 µg/mL (≈ 131 µM); MIC (M. luteus ATCC 4698; [21]): 0.39 µg/mL (≈ 1.02 µM); MIC (E. coli H560; [22]): > 100 µg/mL; MIC (P. aeruginosa K799/WT; [23]): > 100 µg/mL; MIC (P. aeruginosa A5007; [24]): > 100 µg/mL; MIC (Strep. bovis A5169; [25]): 25 µg/mL (≈ 65.4 µM)
